Drawing on US9994546B2, “Cyclopropylamines as LSD1 inhibitors” (Incyte Corporation, priority 2014, dated 2018), this text covers IC50 for twelve compounds.

The target of the test is LSD-1 enzyme (Homo sapiens (Human), UniProt O60341). The experiment in a line: LANCE LSD1/KDM1A demethylase assay (LSD1 histone demethylase biochemical assay). Particulars: 1 nM LSD-1 enzyme, 1 hour preincubation at 25° C., 0.4 μM biotin-labeled Histone H3 peptide substrate. The procedure:
LANCE LSD1/KDM1A demethylase assay—10 μL of 1 nM LSD-1 enzyme (ENZO BML-SE544-0050) in the assay buffer (50 mM Tris, pH 7.5, 0.01% Tween-20, 25 mM NaCl, 5 mM DTT) were preincubated for 1 hour at 25° C. with 0.8 μL compound/DMSO dotted in black 384 well polystyrene plates. […] After stopping the reactions plates were incubated for 30 minutes and read on a PHERAstar FS plate reader (BMG Labtech).
In general terms: In TR-FRET formats the signal depends on donor and acceptor labels being close together.
Consider `N#CCC1(N2CCC(N[C@@H]3C[C@H]3c3ccccc3)CC2)CN(C(=O)c2ccns2)C1` [Example 110, [1-(isothiazol-5-ylcarbonyl)-3-(4-{[(1R,2S)-2-phenylcyclopropyl]amino}piperidin-1-yl)azetidin-3-yl]acetonitrile], for which the half-maximal inhibitory concentration (IC50) (commonly the concentration at which inhibition is half-maximal) was ≤ 100 nM.
Next, `N#CCC1(N2CCC(N[C@@H]3C[C@H]3c3ccccc3)CC2)CN(C(=O)c2cnccn2)C1` [Example 111, [3-(4-{[(1R,2S)-2-phenylcyclopropyl]amino}piperidin-1-yl)-1-(pyrazin-2-ylcarbonyl)azetidin-3-yl]acetonitrile]: ≤ 100 nM; `N#CCC1(N2CCC(N[C@@H]3C[C@H]3c3ccccc3)CC2)CN(C(=O)c2cn[nH]c2)C1` [Example 112, [3-(4-{[(1R,2S)-2-phenylcyclopropyl]amino}piperidin-1-yl)-1-(1H-pyrazol-4-ylcarbonyl)azetidin-3-yl]acetonitrile]: ≤ 100 nM; `N#CCC1(N2CCC(N[C@@H]3C[C@H]3c3ccccc3)CC2)CN(C(=O)c2ccn[nH]2)C1` [Example 113, [3-(4-{[(1R,2S)-2-phenylcyclopropyl]amino}piperidin-1-yl)-1-(1H-pyrazol-5-ylcarbonyl)azetidin-3-yl]acetonitrile]: ≤ 100 nM.
Next, `N#CCC1(N2CCC(N[C@@H]3C[C@H]3c3ccccc3)CC2)CN(C(=O)[C@@H]2CCOC2)C1` [Example 114, {3-(4-{[(1R,2S)-2-phenylcyclopropyl]amino}piperidin-1-yl)-1-[(3R)-tetrahydrofuran-3-ylcarbonyl]azetidin-3-yl}acetonitrile]: ≤ 100 nM; `N#CCC1(N2CCC(N[C@@H]3C[C@H]3c3ccccc3)CC2)CN(C(=O)[C@H]2CCOC2)C1` [Example 115, {3-(4-{[(1R,2S)-2-phenylcyclopropyl]amino}piperidin-1-yl)-1-[(3S)-tetrahydrofuran-3-ylcarbonyl]azetidin-3-yl}acetonitrile]: ≤ 100 nM; `N#CCC1(N2CCC(N[C@@H]3C[C@H]3c3ccccc3)CC2)CN(C(=O)[C@@H]2CCCO2)C1` [Example 116, {3-(4-{[(1R,2S)-2-phenylcyclopropyl]amino}piperidin-1-yl)-1-[(2S)-tetrahydrofuran-2-ylcarbonyl]azetidin-3-yl}acetonitrile]: ≤ 100 nM.
Next, `N#CCC1(N2CCC(N[C@@H]3C[C@H]3c3ccccc3)CC2)CN(C(=O)[C@H]2CCCO2)C1` [Example 117, {3-(4-{[(1R,2S)-2-phenylcyclopropyl]amino}piperidin-1-yl)-1-[(2R)-tetrahydrofuran-2-ylcarbonyl]azetidin-3-yl}acetonitrile]: ≤ 100 nM; `N#CCC1(N2CCC(N[C@@H]3C[C@H]3c3ccccc3)CC2)CN(C(=O)Cc2ccccn2)C1` [Example 118, [3-(4-{[(1R,2S)-2-phenylcyclopropyl]amino}piperidin-1-yl)-1-(pyridin-2-ylacetyl)azetidin-3-yl]acetonitrile]: ≤ 100 nM; `N#CCC1(N2CCC(N[C@@H]3C[C@H]3c3ccccc3)CC2)CN(C(=O)c2cscn2)C1` [Example 119, [3-(4-{[(1R,2S)-2-phenylcyclopropyl]amino}piperidin-1-yl)-1-(1,3-thiazol-4-ylcarbonyl)azetidin-3-yl]acetonitrile]: ≤ 100 nM.
Take `N#CCC1(N2CCC(N[C@@H]3C[C@H]3c3ccccc3)CC2)CN(C(=O)c2nccs2)C1` [Example 120, [3-(4-{[(1R,2S)-2-phenylcyclopropyl]amino}piperidin-1-yl)-1-(1,3-thiazol-2-ylcarbonyl)azetidin-3-yl]acetonitrile]: the IC50 is ≤ 100 nM.
Next, `CN(C)C(=O)CC1(N2CCC(N[C@@H]3C[C@H]3c3ccccc3)CC2)CN(C2CCOCC2)C1` [Example 121, N,N-dimethyl-2-[3-(4-{[(1R,2S)-2-phenylcyclopropyl]amino}piperidin-1-yl)-1-(tetrahydro-2H-pyran-4-yl)azetidin-3-yl]acetamide]: ≤ 100 nM.
